ChEMBL document CHEMBL2203213, “Cytotoxic indole diketopiperazines from the deep sea-derived fungus Acrostalagmus luteoalbus SCSIO F457” (Bioorg Med Chem Lett, 2012)

How the values were obtained:
Type in all cases: functional, cell-based
[1] = test system: NCI-H460; assay: Cytotoxicity against human NCI-H460 cells by SRB method
[2] = test system: HepG2; assay: Cytotoxicity against human HepG2 cells by SRB method
[3] = test system: MCF7; assay: Cytotoxicity against human MCF7 cells by SRB method
[4] = test system: SF-268; assay: Cytotoxicity against human SF268 cells by SRB method

Compound	IC50 [1] [nM]	IC50 [2] [nM]	IC50 [3] [nM]	IC50 [4] [nM]
C[C@@H]1NC(=O)[C@H](Cc2c[nH]c3ccccc23)NC1=O	> 100000	> 100000	> 100000	> 100000
O=C1N[C@@H](Cc2c[nH]c3ccccc23)C(=O)N[C@H]1CO	> 100000	> 100000	> 100000	> 100000
C[C@H]1C(=O)N[C@@H](Cc2c[nH]c3ccccc23)C(=O)N1C	> 100000	> 100000	> 100000	> 100000
CN1C(=O)[C@]23SSS[C@@]1(C)C(=O)N2[C@H]1Nc2ccccc2[C@]1(c1c[nH]c2ccccc12)[C@@H]3O	17800	2030	650	2490
CN1C(=O)[C@]23SS[C@@]1(C)C(=O)N2[C@H]1Nc2ccccc2[C@]1(c1c[nH]c2ccccc12)[C@@H]3O	6570	530	230	730
CN1C(=O)[C@]23SSS[C@]1(CO)C(=O)N2[C@H]1Nc2ccccc2[C@@]1(c1c[nH]c2ccccc12)[C@@H]3O	5600	3520	910	1040
CS[C@]1(Cc2c[nH]c3ccccc23)NC(=O)[C@](CO)(SC)N(C)C1=O [CHETOSEMINUDIN B]	> 100000	> 100000	> 100000	> 100000
CS[C@]1(CO)NC(=O)[C@](Cc2c[nH]c3ccccc23)(SC)NC1=O [CHETOSEMINUDIN C]	> 100000	> 100000	> 100000	> 100000
CN1C(=O)[C@@]23C[C@@]4(c5c[nH]c6ccccc56)c5ccccc5N[C@@H]4N2C(=O)[C@]1(CO)SS3 [LUTEOALBUSIN A]	1150	910	230	460
CN1C(=O)[C@@]23C[C@@]4(c5c[nH]c6ccccc56)c5ccccc5N[C@@H]4N2C(=O)[C@]1(CO)SSS3 [LUTEOALBUSIN B]	1310	1290	250	590
